Measured values from US20130143929A1, “FUNGICIDAL IMIDAZOLES” (EI DU PONT DE NEMOURS AND COMPANY, priority 2010, published 2013).
Marks after values point to notes of the source that are not given here.

Assays:
Type in all cases: in vivo
[1] = tested on: Puccinia recondite f. sp. tritici (the causal agent of wheat leaf rust); test: Test A: wheat leaf rust, preventive spray on wheat seedlings, visual disease rating; settings: wheat leaf rust, preventive spray on wheat seedlings
How it was run: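 This was a preventive test: Puccinia recondite f. sp. tritici inoculum was applied one day after compound spray to run-off. Test suspensions were made in 50/50 acetone/water with 250 ppm surfactant, at 200 ppm (800 g/ha equivalent) or 40 ppm. Visual ratings of % disease control relative to controls were made after 24 h of saturated humidity and 7 growth-chamber days, all at 20° C.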

[2] = tested on: Blumeria graminis f. sp. tritici (also known as Erysiphe graminis f. sp. tritici, the causal agent of wheat powdery mildew); test: Test D: wheat powdery mildew, preventive spray on wheat seedlings, visual disease rating; settings: wheat powdery mildew, preventive spray on wheat seedlings; asterisk: 40 ppm test suspension
How it was run: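 Preventive test: seedlings sprayed to run-off and inoculated with powdery mildew spores one day later. Suspensions were made in 50/50 acetone/water with 250 ppm Trem 014 surfactant (200 ppm equals 800 g/ha). Visual ratings after 8 days at 20 °C give percent disease control versus controls.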

[3] = tested on: Botrytis cinerea (the causal agent of tomato Botrytis); test: Test C: tomato Botrytis, preventive spray on tomato seedlings, visual disease rating; settings: tomato Botrytis, preventive spray on tomato seedlings; asterisk: 40 ppm test suspension
How it was run: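 Preventive test: B. cinerea spore inoculation one day after tomato seedlings were sprayed to run-off with compound suspended in 50/50 acetone–water plus 250 ppm surfactant. Plants held 48 h at 20° C in saturated air, then 3 days at 24° C; visual ratings scored 100 (full control) to 0 versus controls; some entries used 40 ppm.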

[4] = tested on: Septoria tritici (the causal agent of wheat leaf blotch); test: Test B: wheat leaf blotch, preventive spray on wheat seedlings, visual disease rating; settings: wheat leaf blotch, preventive spray on wheat seedlings; asterisk: 40 ppm test suspension
How it was run: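 Preventive test: Septoria tritici spores applied one day after run-off spraying of seedlings (200 ppm equals 800 g/ha; some tests 40 ppm). After 48 h at 24 °C saturated atmosphere and 19 days at 20 °C, disease scored visually as % control relative to untreated plants.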

[5] = asterisk: 40 ppm test suspension

SMILES | Test A rating (100 = 100% disease control, 0 = no disease control relative to the controls) [1, 5] | Test D rating (100 = 100% disease control, 0 = no disease control relative to the controls) [2] | Test C rating (100 = 100% disease control, 0 = no disease control relative to the controls) [3] | Test B rating (100 = 100% disease control, 0 = no disease control relative to the controls) [4] | Test A rating (100 = 100% disease control, 0 = no disease control relative to the controls) ([1]; no asterisk (standard test suspension concentration, not 40 ppm))
Cc1cc(F)ccc1C(O)c1c(C)nc(Cl)n1-c1c(F)cccc1Br (stereo not shown) [compound 209] | 99* % | 42* % | 100* % | 100* % | 
COc1ccc(C(O)c2c(C)nc(Cl)n2-c2c(F)cccc2Cl)c(F)c1 (stereo not shown) [compound 210] |  | 99* % | 100* % | 100* % | 100%
COc1ccc(C(O)c2c(C)nc(Cl)n2-c2c(F)cccc2Br)c(F)c1 (stereo not shown) [compound 211] | 100* % | 98* % | 100* % | 100* % | 
COc1ccc(C(O)c2c(C)nc(Cl)n2-c2c(F)cccc2Cl)c(C)c1 (stereo not shown) [compound 212] | 100* % | 97* % | 100* % | 100* % | 
COc1ccc(C(O)c2c(C)nc(Cl)n2-c2c(F)cccc2Br)c(C)c1 (stereo not shown) [compound 213] | 100* % | 91* % | 100* % | 100* % | 
COc1ccc(-n2c(C(O)c3ccc(F)cc3Cl)cnc2C)c(OC)c1 (stereo not shown) [compound 214] | 0* % | 0* % | 0* % | 0* % | 
COc1ccc(C(O)c2c(Br)nc(C)n2-c2ccc(F)cc2Cl)c(F)c1 (stereo not shown) [compound 302] | 100* % | 64* % | 100* % | 100* % | 
COc1ccc(C(O)c2cnc(C)n2-c2ccc(F)cc2Br)c(F)c1 (stereo not shown) [compound 303] | 74* % | 0* % | 8* % | 43* % | 
Cc1ncc(C(O)c2c(F)cc(Cl)cc2F)n1-c1ccc(F)cc1Br (stereo not shown) [compound 305] | 9* % | 0* % | 21* % | 17* % | 
COc1ccc(C(O)c2c(Cl)nc(C)n2-c2ccc(F)cc2F)c(F)c1 (stereo not shown) [compound 306] | 100* % | 0* % | 97* % | 100* % | 
COc1ccc(C(O)c2c(Cl)nc(C)n2-c2ccc(F)cc2F)c(Cl)c1 (stereo not shown) [compound 307] | 99* % | 0* % | 0* % | 100* % | 
Cc1nc(Br)c(C(O)c2c(F)cc(Cl)cc2F)n1-c1ccc(F)cc1Br (stereo not shown) [compound 308] | 100* % | 93* % | 100* % | 100* % | 
Cc1nc(Br)c(C(O)c2ccc(F)cc2Br)n1-c1ccc(F)cc1F (stereo not shown) [compound 309] | 100* % | 64* % | 65* % | 100* % | 
COc1ccc(C(O)c2c(Br)nc(C)n2-c2ccc(F)cc2Br)c(F)c1 (stereo not shown) [compound 310] | 100* % | 56* % | 100* % | 100* % | 
Cc1ncc(C(O)c2ccc(C#N)cc2F)n1-c1ccc(F)cc1Br (stereo not shown) [compound 311] | 9* % | 0* % | 0* % | 5* % | 
COc1ccc(C(O)c2cnc(C)n2-c2ccc(F)cc2Br)c(Cl)c1 (stereo not shown) [compound 312] | 28* % | 0* % | 0* % | 12* % | 
Cc1nc(Cl)c(C(O)c2ccc(F)cc2Br)n1-c1ccc(F)cc1F (stereo not shown) [compound 313] | 100* % | 0* % | 17* % | 100* % | 
COc1ccc(C(O)c2c(Cl)nc(C)n2-c2ccc(F)cc2Br)c(F)c1 (stereo not shown) [compound 314] | 100* % | 47* % | 99* % | 100* % | 
Cc1cc(F)ccc1C(O)c1c(Cl)nc(C)n1-c1c(F)cc(F)cc1Br (stereo not shown) [compound 315] | 99* % | 96* % | 96* % | 100* % | 
Cc1nc(Cl)c(C(O)c2ccc(F)cc2F)n1-c1c(F)cccc1Br (stereo not shown) [compound 316] | 100* % | 95* % | 99* % | 100* % | 
Cc1cccc(Cl)c1-n1c(C)nc(Br)c1C(O)c1ccc(F)cc1F (stereo not shown) [compound 317] | 100* % | 56* % | 96* % | 89* % | 
COc1ccc(-n2c(Cl)nc(Cl)c2C(O)c2ccc(F)cc2Cl)c(F)c1 (stereo not shown) [compound 319] | 100* % | 0* % | 99* % | 100* % | 
